Measurements as given in publication PMC3842960, “Natural Stilbenoids Isolated from Grapevine Exhibiting Inhibitory Effects against HIV-1 Integrase and Eukaryote MOS1 Transposase In Vitro Activities” (PLoS ONE, 2013).

Assays:
HIV-1 IN [1] = target: T1, HIV-1 IN (Human immunodeficiency virus type 1 group M subtype B, UniProt P04585); assay: HIV-1 IN in vitro concerted integration assay (processed or unprocessed donor DNA); conditions: for effect on integration from the processed DNA: processed donor DNA (strand transfer); for inhibition of integration from the unprocessed substrate: unprocessed donor DNA; for differential effect between reactions: strand transfer / processed donor versus 3′processing / unprocessed donor: comparison of concerted integration and 3′processing results
HIV-1 IN [2] = target: T1, HIV-1 IN; assay: HIV-1 IN 3′processing assay; format: biochemical; conditions: 600 nM IN; increasing concentrations
293T cells = conditions: 72 hours treatment, 1–50 µM, MTS
MOS1 = target: T2, MOS1 (Drosophila mauritiana, UniProt Q7JQ07); assay: MOS1 in vitro activities, overall statements of the discussion; format: biochemical, D. mauritiana; conditions: in vitro assays of MOS1 activities; discussion
T2 construct: involving the full-length Mos1 transposase (MOS1) was recently solved; made in house
T2 sequence (Q7JQ07 whole entry): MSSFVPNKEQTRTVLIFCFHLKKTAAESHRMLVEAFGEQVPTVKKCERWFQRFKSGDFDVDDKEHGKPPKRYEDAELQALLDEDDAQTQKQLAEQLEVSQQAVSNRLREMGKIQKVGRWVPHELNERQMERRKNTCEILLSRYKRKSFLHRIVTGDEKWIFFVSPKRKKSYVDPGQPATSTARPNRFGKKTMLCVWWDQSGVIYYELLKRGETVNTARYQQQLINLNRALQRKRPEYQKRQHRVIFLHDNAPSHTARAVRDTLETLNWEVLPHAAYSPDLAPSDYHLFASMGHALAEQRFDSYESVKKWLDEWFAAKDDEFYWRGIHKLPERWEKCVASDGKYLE
Description: (§1) In vitro transposition reactions were performed using pBC-3T3 as both the donor DNA and the target, as previously described. Briefly, the basic transposition reaction mixtures contained 10 mM Tris-HCl (pH 9), 50 mM NaCl, 20 mM MgCl2, 0.5 mM EDTA, 5% glycerol, 5 ng/ml BSA, 600 ng pBC-3T3, and 80 nM purified MBP-MOS1 (added last) in a volume of 20 µl. Inhibitors (25 or 10 µM, as specified) or DMSO (2%) were added to the reaction mixtures before the transposase. The reactions were allowed to proceed for 30 min at 30°C. After phenol-chloroform extraction and ethanol precipitation, 10% of the reaction mixture was transformed in electro-competent JM109 E. coli (2 mm cuvette, 1.5 kV in a MicroPulser™BioRad). Appropriate dilutions of each reaction mixture were plated on LB-tetracycline (12.5 µg/ml) agar and LB-chloramphenicol (80 µg/ml) agar to score the transposition rate. The transposition rate was the number of Tet^R colonies divided by the number of Chloram^R plus Tet^R colonies. Each condition was done at least three times in independent experiments.
Basic excision reaction mixtures contained 10 mM Tris-HCl (pH 9), 50 mM NaCl, 20 mM MgCl2, 0.5 mM EDTA, 0.5 mM DTT, 100 ng BSA, 600 ng of super-coiled pBC-3T3, and 80 nM MBP-MOS1 (added last) in a volume of 20 µl. Molecules (25 or 10 µM, as specified) or DMSO (2%) were added to the reaction mixtures before the transposase. The reactions were allowed to proceed at 30°C for 30 min before 2 µl of stop solution (loading buffer) were added. The reaction mixtures were then incubated at 65°C for 10 min. Each reaction was analysed by overnight electrophoresis at 2.7 V/cm on a TAE-buffered 1% agarose gel with ethidium bromide (0.3 mg/ml). After electrophoresis, the gel was photographed on a transilluminator. ImageGauge 4.22 software (Fujifilm) was used to quantify the bands. Each condition was tested at least twice.
These assays were performed using pre-cleaved 3′ITRs (PC-ITR), i.e. ITRs in the configuration expected after excision. Double-strand ITRs were obtained by annealing equimolar amounts of 70-NTS-PN (5′[…]3′) and 70-TS-PC (5′[…]3′) single-strand oligonucleotides. Prior to annealing, the transferred strand (70-TS-PC) was 5′-end labelled using T4 polynucleotide kinase (Promega) and γ-^32P-ATP following the manufacturer's instructions. Oligonucleotides were provided by Eurofins MWG Biotech (Germany) or Eurogentec (Belgium). Reaction mixtures containing 10 mM Tris-HCl (pH 9), 50 mM NaCl, 1 mM DTT, 5% glycerol, 100 ng BSA, 100 nM of labelled PC-ITR and 100 nM MBP-MOS1 in a final volume of 20 µl were incubated at 30°C for 30 min. The pBC plasmid (which contained the cat gene, a hot-spot for Mos1 insertion) was then added to 30 ng/µL along with 5 mM MgCl2. Molecules (25 or 10 µM, as specified) or DMSO (2%) were added to the reaction mixtures along with the target DNA to estimate their effect on integration. Reactions were carried out for 3 hours at 30°C. 0.1 mg/ml proteinase K and 0.1% SDS were added to stop the reaction. DNA products were purified by phenol-chloroform extraction and ethanol precipitated using standard techniques. DNA products were resuspended in DNA loading buffer, then separated onto a 1% agarose gel in 1X TAE (Tris Acetate EDTA) buffer. The gel was dried onto a nitrocellulose membrane (Hybond N+, GE Healthcare), scanned using a Storm, and analysed with ImageQuant software. Signals were quantified using ImageQuant software. Efficiency of integration was calculated as the intensity of the integration signal divided by the intensity of free target signal plus integration signal. Each condition was tested at least twice.
All molecules were also tested in in vitro assays reproducing integration and excision reactions catalysed by MOS1. […] In contrast, E-resveratrol and E-ε-viniferin glucoside, which act more specifically on HIV-1 3′processing reaction, and E-piceid and E-pterostilbene, which is more efficient on the integration reaction, were not active on MOS1.

Mos1 transposase (MOS1) = target: T3, Mos1 transposase (MOS1) (Drosophila mauritiana, UniProt Q7JQ07); assay: MOS1 in vitro transposition assay (genetic hop experiment); format: biochemical, D. mauritiana; conditions: for inhibition at 25 µM: DMSO control as reference, read-out: inhibition of the whole MOS1 transposition activity
T3 construct: involving the full-length Mos1 transposase (MOS1) was recently solved; made in house
T3 sequence (Q7JQ07 whole entry): as above
Description: The wild type Mos1 transposase (MOS1: 345 amino acids) was produced and purified as a fusion protein linked to the maltose-binding protein by using the pMal-c2 system (New England Biolabs) and following the manufacturer's instructions.
as §1
To identify the natural stilbenes active on MOS1, the 17 molecules were tested using an in vitro genetic “hop” experiment, which is the most sensitive test available as yet. Purified MOS1 was incubated with the pBC-3T3 plasmid, which was used both as the transposon donor and the target plasmid. This plasmid contains the pBR322 tetracycline resistance gene (without promoter) framed by two Mos1 ITRs. This reconstitutes a pseudo-Mos1 element named 3T3. We took advantage of the fact that the cat gene (present in the pBC backbone) is a hotspot for Mos1 integration. […] Transposition events were recovered by bacterial transformation with selection for tetracycline resistance, as a gain-of-function landmark for transposition. […] Controls correspond to assays performed without molecule but with DMSO, which is routinely used as the solvent. […] To confirm the efficiency of the six molecules, they were similarly assayed at 10 µM ( figure 6B ). Since they appeared to be still active at 10 µM, they were further characterized in order to identify the targeted step of the transposition cycle.

[3] = read-out: inhibition of concerted integration

Row | Compound | inhibition at 10 µM (HIV-1 IN [1]; [3]) [%] | inhibitory effect on 3′processing (HIV-1 IN [2]) | activity on MOS1 (MOS1) | differential effect between reactions: strand transfer / processed donor versus 3′processing / unprocessed donor (HIV-1 IN [1]) | inhibition of concerted integration from processed and unprocessed donor (HIV-1 IN [1]; increasing concentrations) | also measured
1 | Oc1ccc(/C=C/c2cc(O)cc3c2[C@H](c2cc(O)cc(O)c2)[C@@H](c2ccc(O)cc2)O3)cc1 [(+)-E-ε-viniferin] | < 5 | – | – | – | – | –
2 | Oc1ccc(/C=C/c2cc(O)cc3c2[C@@H](c2cc(O)cc4c2[C@H](c2cc(O)cc(O)c2)[C@@H](c2ccc(O)cc2)O4)[C@H](c2ccc(O)cc2)O3)cc1 [E-miyabenol C] | < 5 | – | – | – | – | –
3 | Oc1cc(O)cc(/C=C/c2ccc(O)c(O)c2)c1 [E-piceatannol] | – | showed an inhibitory effect | – | – | – | cytotoxicity, cell survival (293T cells): showed some toxicity; effect on integration from the processed DNA (HIV-1 IN [1]; increasing concentrations): without having any detectable effect; inhibition of integration from the unprocessed substrate (HIV-1 IN [1]; increasing concentrations): inhibit integration from the unprocessed substrate
4 | OCC1OC(Oc2cc(O)cc(C=Cc3ccc(O)cc3)c2)C(O)C(O)C1O (stereo not drawn) [E-piceid] | – | – | not active | more active on strand transfer reaction than | inhibited both activities | –
5 | Oc1ccc(/C=C/c2cc(O)cc(O)c2)cc1 [E-resveratrol] | – | showed an inhibitory effect | not active | reaction than on integration | – | effect on integration from the processed DNA (HIV-1 IN [1]; increasing concentrations): without having any detectable effect; inhibition of integration from the unprocessed substrate (HIV-1 IN [1]; increasing concentrations): inhibit integration from the unprocessed substrate
6 | Oc1ccc(/C=C/c2cc(O)cc3c2[C@H](c2cc(O)cc(O)c2)[C@@H](c2ccc(O)c(O)c2)O3)cc1 [E-scirpusin A] | – | low | – | – | inhibited both activities | –
7 | OCC1OC(Oc2cc(C=Cc3ccc(O)cc3)c3c(c2)OC(c2ccc(O)cc2)C3c2cc(O)cc(O)c2)C(O)C(O)C1O (stereo not drawn) [E-ε-viniferin glucoside] | – | showed an inhibitory effect | not active | reaction than on integration | – | cytotoxicity, cell survival (293T cells): showed some toxicity; effect on integration from the processed DNA (HIV-1 IN [1]; increasing concentrations): without having any detectable effect; inhibition of integration from the unprocessed substrate (HIV-1 IN [1]; increasing concentrations): inhibit integration from the unprocessed substrate
8 | Oc1ccc([C@@H]2c3c(O)cc(O)cc3[C@H]3c4c(cc(O)cc4[C@H]2O)O[C@@H]3c2ccc(O)cc2)cc1 [ampelopsin A] | < 5 | – | – | – | – | –
9 | Oc1ccc([C@H]2c3c(O)cc(O)cc3[C@H]3c4c(cc(O)cc4C2C2c4cc(O)cc5c4[C@H](c4cc(O)cc(O)c4[C@@H]2c2ccc(O)cc2)[C@@H](c2ccc(O)cc2)O5)O[C@@H]3c2ccc(O)cc2)cc1 (stereo partly drawn) [isohopeaphenol] | < 5 | – | not active | – | – | –
10 | Oc1ccc(C(O)C2c3cc(O)cc(O)c3[C@H](c3ccc(O)cc3)[C@H]2c2cc(O)cc(O)c2)cc1 (stereo partly drawn) [leachianol G] | – | low | also active against MOS1 activities | more active on strand transfer reaction than | inhibited both activities | activity against MOS1 in transposition assay (Mos1 transposase (MOS1); 10 µM): still active; inhibition at 25 µM (Mos1 transposase (MOS1); 25 µM): > 50%; inhibitory efficiency compared with raltegravir (HIV-1 IN [1]; concerted integration, increasing concentrations): inhibitory efficiencies close to raltegravir; inhibition at 50 µM (HIV-1 IN [1]; [3]): 30 to 60%
11 | Oc1cc(O)cc(-c2cc3ccc(O)cc3o2)c1 [moracin M] | < 5 | – | – | – | – | –
12 | Oc1ccc(/C=C2/c3cc(O)cc(O)c3[C@H](c3ccc(O)cc3)[C@H]2c2cc(O)cc(O)c2)cc1 [quadrangularin A] | – | showed an inhibitory effect | also active against MOS1 activities | better inhibitor of integration from unprocessed than from processed DNA | inhibited both activities | activity against MOS1 in transposition assay (Mos1 transposase (MOS1); 10 µM): still active; inhibition at 25 µM (Mos1 transposase (MOS1); 25 µM): > 50%
13 | Cc1nnc(C(=O)NC(C)(C)c2nc(C(=O)NCc3ccc(F)cc3)c(O)c(=O)n2C)o1 [raltegravir, reference compound] | – | inhibition property than the selected compounds | – | – | always found better inhibitor than the selected compounds | –
14 | Oc1ccc([C@H]2Oc3cc(O)cc(/C=C/c4ccc5c(c4)[C@@H](c4cc(O)cc6c4[C@H](c4cc(O)cc(O)c4)[C@@H](c4ccc(O)cc4)O6)[C@H](c4ccc(O)cc4)O5)c3[C@@H]2c2cc(O)cc(O)c2)cc1 [vitisin B, E-vitisin B] | < 5 | – | – | – | – | activity against MOS1 in transposition assay (Mos1 transposase (MOS1); 10 µM): still active; activity against MOS1 in transposition assay (Mos1 transposase (MOS1); 25 µM): active against MOS1
